System: antibody-forming cells (AFC) in the spleen
Assay: Influence of compound on humoral immune response to sheep erythrocytes, C57B1/6 female mice (AFC in spleen, hemagglutinins)
Format: in vivo
Details: for Amount of antibody-forming cells per 10^6 spleen cells / Amount of antibody-forming cells per spleen / Effect on relative amount of AFC (per 10^6 spleen cells) / Effect on total AFC amount (per spleen): 5th day; for Amount of antibody-forming cells per 10^6 spleen cells / Amount of antibody-forming cells per spleen: M ± SEM; for Effect on relative amount of AFC (per 10^6 spleen cells) / Effect on total AFC amount (per spleen) / Effect on hemagglutinin titers: vs control; for Spleen index: with SRBC i.p.
Protocol: The increase was calculated as compared with the amount of cells in the animals immunised only with sheep erythrocytes.
0.15 ml of compound 10 was administered intravenously to 6 mice females of CS7B1/6 line (weight 18-22 g) in doses of 45.5, 91 and 136.5 μg of compound 10 per capita for each testing group according to the dose. Simultaneously, a suspension of 5·10^7 sheep erythrocytes was injected intraperitoneally (0.2 ml per capita). Mice in the control group were injected intravenously with equal volume of saline. The effects of compound 10 on humoral immune response were analyzed both by counting the quantity of AFC in the spleen according to Cunningham (per 10^6 spleen cells and per spleen) and estimating the titers of hemagglutining antibodies in serum of the animals (Cunningham A. J., Nature, 1965, Vol.207, No 5001. P.1106-1107), while the titers of hemagglutinating antibodies were evaluated according to litterature (Evans J. et al., Cell, 1974; Vol 3., p.153-158, Feizi T., Menger E., Transfusion, 1970, Vol. 10, p.33-35,).
(§1) 0.15 ml of compound 11 was administered intravenously to 6 female mice of the C57B1/6 line (weight 18-22 g) in doses of 45.5, 91 and 136.5 μg of compound 11 per capita for each testing group according to the dose. Simultaneously, a suspension of 5·10^7 sheep erytrocytes was injected intraperitoneally (0.2 ml per capita). Mice in the control group were injected intravenously with an equal volume of saline. The effects of compound 11 on humoral immune response was analysed both by counting the quantity of AFC in the spleen according to Cunningham (per 10^6 spleen cells and per spleen) and estimating the titers of hemagglutining antibodies in serum of the animals.
as §1, with “12” for “11”, “erythrocytes” for “erytrocytes”, “analyzed” for “analysed”
as §1, with “compound 8” for “compound 11”, “sheep erythrocytes” for “sheep erytrocytes”, “Mice of” for “Mice in”, “response were analyzed” for “response was analysed”
0.15 ml of compound 3 was administered intravenously to 6 female mice of the C57B1/6 line (weight 18-22 g) in doses of 45.5, 91 and 136.5 μg of compound 3 per capita for each testing group according to the dose. Simultaneously, a suspension of 5·10^7 sheep erytrocytes was injected intraperitoneally (0.2 ml per capita). Mice of the control group were injected intravenously with equal volume of saline.

SMILES	Immunogenic activity (45.5 μg/mouse)	Amount of antibody-forming cells per 10^6 spleen cells (45.5 μg/mouse, i.v.)	Amount of antibody-forming cells per spleen (45.5 μg/mouse, i.v.)	Effect on relative amount of AFC (per 10^6 spleen cells) (45.5 μg/mouse, i.v.)	Effect on total AFC amount (per spleen) (45.5 μg/mouse, i.v.)	Effect on hemagglutinin titers (45.5 μg/mouse, i.v.)	Spleen index (45.5 μg/mouse, i.v.)	immunostimulating effect in vivo in micelle form (91 μg/mouse)	Amount of antibody-forming cells per 10^6 spleen cells (91 μg/mouse, i.v.)	Amount of antibody-forming cells per spleen (91 μg/mouse, i.v.)	Effect on hemagglutinin titers (91 μg/mouse, i.v.)	Spleen index (91 μg/mouse, i.v.)	Amount of antibody-forming cells per 10^6 spleen cells (136.5 μg/mouse, i.v.)	Amount of antibody-forming cells per spleen (136.5 μg/mouse, i.v.)	immunostimulating action (91 and 136.5 μg/mouse)	Spleen index (136.5 μg/mouse, i.v.)	other results
CC1=C(/C=C/C(C)=C/C=C/C(C)=C/C(=O)N[C@@H](Cc2ccc(OP(=O)(O)O)cc2)C(=O)O)C(C)(C)CCC1 (stereo in doubt) [Compound 4, N-(all-trans-Retinoyl)-O-phospho-L-tyrosine]	no immunogenic activity	405.0±47.9 cells per 10^6 spleen cells	55.0±6.7 × 10^3	−0.3 p >0.05%	−8.9 p > 0.05%	−3.2 p > 0.05%	6.6 ± 0.5 10^−3	display immunostimulating effect in vivo	692.9±44.8 cells per 10^6 spleen cells	87.6±4.3 × 10^3	+4.8 p > 0.05%	6.3 ± 0.4 10^−3	1354.3±99.9 cells per 10^6 spleen cells	138.9±10.0 × 10^3	high immunostimulating action	–	–
CC1=C(/C=C/C(C)=C/C=C/C(C)=C\C(=O)NCCOP(=O)(O)O)C(C)(C)CCC1 [Compound 1a, N-(13cis-Retinoyl)-O-phospho-2-aminoethanol]	no immunogenic activity	815.8±70.9 cells per 10^6 spleen cells	104.6±10.7 × 10^3	+5.6 p > 0.05%	+16.4 p > 0.05%	−1,3 p > 0.05%	6.1 ± 0.2 10^−3	display immunostimulating effect in vivo	997.2±43.4 cells per 10^6 spleen cells	114.5±8.2 × 10^3	−1,3 p > 0.05%	6.2 ± 0.2 10^−3	1176.9±58.5 cells per 10^6 spleen cells	149.4±9.4 × 10^3	marked immunostimulating action	6.9 ± 0.3 10^−3	Effect on hemagglutinin titers (136.5 μg/mouse, i.v.): +6,5 p > 0.05%
CC/C=C\C/C=C\C/C=C\C/C=C\C/C=C\C/C=C\CCC(=O)N[C@H](C(=O)O)[C@@H](C)OP(=O)(O)O [Compound 11, N-(cis-4,7,10,13,16,19-docosahexaenoyl)-O-phospho-L-threonine]	–	676.8±77.1 cells per 10^6 spleen cells	85.9±8.3 × 10^3	−15.3 p > 0.05%	−15.0 p > 0.05%	0%	6.2 ± 0.2 10^−3	–	896.8±111.8 cells per 10^6 spleen cells	111.2±11.8 × 10^3	−3.6 p > 0.05%	6.9 ± 0.5 10^−3	1336.5±59.0 cells per 10^6 spleen cells	182.5±7.8 × 10^3	–	7.5 ± 0.4 10^−3	Effect on relative amount of AFC (per 10^6 spleen cells) (91 μg/mouse, i.v.): +12.2 p > 0.05%; Effect on total AFC amount (per spleen) (91 μg/mouse, i.v.): +10.0 p > 0.05%; immunostimulating action (136.5 μg/mouse): marked immunostimulating action; Amount of hemagglutinins (136.5 μg/mouse, i.v., serum): 9.3±0.2 Log2 T; Immunogenic activity (45.5 and 91 μg/mouse): no immunogenic activity

— patent US6403554B2, “Polyunsaturated fatty acid derivatives and their use” (Ardenia Investments Ltd., priority 1998, dated 2002)
